From the NIST ThermoML archive (doi:10.1016/j.jct.2012.10.008) come the findings set out here.

± gives the expanded uncertainty stated by the source.

The viscosity is the resistance of a fluid to flow. One may read the mass density as the mass of a sample divided by its volume.

For the first data set the following is noted: 293.15 K; 101.33 kPa; Liquid; Falling or rolling sphere viscometry.
Consider `CCCCO` [butan-1-ol], for which the viscosity is recorded as 2.942 ± 0.023 mPa·s.

Take `CO` [methanol]: the viscosity is 0.588 ± 0.006 mPa·s.

`CCO` [ethanol]: the viscosity came to 1.218 ± 0.01 mPa·s.

As for `CCCC[NH3+].O=[N+]([O-])[O-]` [n-butylammonium nitrate], the viscosity was determined as 111.35 ± 4.1 mPa·s.

On to `CCCO` [propan-1-ol], for which the viscosity is 2.208 ± 0.017 mPa·s.

Staying with this data set, now noted: 293.15 K; 101.33 kPa; Liquid; Vibrating tube method.
Regarding `CCCCO` [butan-1-ol], the mass density was 809.76 ± 0.14 kg/m3.

Consider `CO` [methanol], for which the mass density worked out at 791.23 ± 0.15 kg/m3.

For the compound `CCO` [ethanol], the mass density was found to be 789.5 ± 0.15 kg/m3.

As to `CCCC[NH3+].O=[N+]([O-])[O-]` [n-butylammonium nitrate], the mass density was found to be 1104.68 ± 6.6 kg/m3.

For `CCCO` [propan-1-ol], the mass density is reported as 803.56 ± 0.15 kg/m3.

Still in this data set, the particulars now being: 298.15 K; 101 kPa; Liquid; Vibrating tube method.
Regarding `CCCCO` [butan-1-ol], the mass density is 805.94 ± 0.14 kg/m3.

Still in this data set, the particulars now being: 298.15 K; 101.33 kPa; Liquid; Falling or rolling sphere viscometry.
For `CCCCO` [butan-1-ol], the viscosity is reported as 2.572 ± 0.02 mPa·s.

Regarding `CO` [methanol], the viscosity was determined as 0.552 ± 0.006 mPa·s.

Take `CCO` [ethanol]: the viscosity came out at 1.134 ± 0.009 mPa·s.

Take `CCCC[NH3+].O=[N+]([O-])[O-]` [n-butylammonium nitrate]: the viscosity came out at 89.95 ± 2.9 mPa·s.

As to `CCCO` [propan-1-ol], the viscosity is listed as 1.975 ± 0.016 mPa·s.

The data set is the same for the next values; noted with them: 298.15 K; 101.33 kPa; Liquid; Vibrating tube method.
As to `CCCCO` [butan-1-ol], the mass density was 805.96 ± 0.14 kg/m3.

`CO` [methanol]: the mass density is 786.54 ± 0.15 kg/m3.

As for `CCO` [ethanol], the mass density is recorded as 785.39 ± 0.15 kg/m3.

Regarding `CCCC[NH3+].O=[N+]([O-])[O-]` [n-butylammonium nitrate], the mass density is 1101.52 ± 6.6 kg/m3.

Take `CCCO` [propan-1-ol]: the mass density is listed as 799.58 ± 0.15 kg/m3.

The data set is the same for the next values; noted with them: 303.15 K; 101 kPa; Liquid; Falling or rolling sphere viscometry.
`CCO` [ethanol]: the viscosity is recorded as 1.01 ± 0.008 mPa·s.

The same data set, now with this note: 303.15 K; 101.33 kPa; Liquid; Falling or rolling sphere viscometry.
Regarding `CCCCO` [butan-1-ol], the viscosity is 2.265 ± 0.018 mPa·s.

As to `CO` [methanol], the viscosity stood at 0.516 ± 0.006 mPa·s.

`CCO` [ethanol]: the viscosity was found to be 1.015 ± 0.008 mPa·s.

Turning to `CCCC[NH3+].O=[N+]([O-])[O-]` [n-butylammonium nitrate], the viscosity is 73.04 ± 2.1 mPa·s.

`CCCO` [propan-1-ol]: the viscosity is listed as 1.738 ± 0.014 mPa·s.

The same data set, now with this note: 303.15 K; 101.33 kPa; Liquid; Vibrating tube method.
As for `CCCCO` [butan-1-ol], the mass density is given as 802.11 ± 0.15 kg/m3.

Turning to `CO` [methanol], the mass density came to 781.81 ± 0.15 kg/m3.

Take `CCO` [ethanol]: the mass density turned out to be 780.69 ± 0.15 kg/m3.

For `CCCC[NH3+].O=[N+]([O-])[O-]` [n-butylammonium nitrate], the mass density was 1098.38 ± 6.5 kg/m3.

`CCCO` [propan-1-ol]: the mass density is given as 795.59 ± 0.15 kg/m3.

The same data set, now with this note: 308.15 K; 101 kPa; Liquid; Falling or rolling sphere viscometry.
Take `CCO` [ethanol]: the viscosity was 0.907 ± 0.008 mPa·s.

The data set is the same for the next values; noted with them: 308.15 K; 101.33 kPa; Liquid; Falling or rolling sphere viscometry.
For the compound `CCCCO` [butan-1-ol], the viscosity is 2.002 ± 0.016 mPa·s.

For the compound `CO` [methanol], the viscosity turned out to be 0.486 ± 0.005 mPa·s.

`CCO` [ethanol]: the viscosity is listed as 0.91 ± 0.008 mPa·s.

For the compound `CCCC[NH3+].O=[N+]([O-])[O-]` [n-butylammonium nitrate], the viscosity turned out to be 60.25 ± 1.6 mPa·s.

On to `CCCO` [propan-1-ol], for which the viscosity is reported as 1.549 ± 0.012 mPa·s.

Staying with this data set, now noted: 308.15 K; 101.33 kPa; Liquid; Vibrating tube method.
For `CCCCO` [butan-1-ol], the mass density was found to be 798.18 ± 0.15 kg/m3.

In the case of `CO` [methanol], the mass density is on record as 777.05 ± 0.15 kg/m3.

Consider `CCO` [ethanol], for which the mass density came to 776.35 ± 0.15 kg/m3.

Take `CCCC[NH3+].O=[N+]([O-])[O-]` [n-butylammonium nitrate]: the mass density is listed as 1095.26 ± 6.5 kg/m3.

Consider `CCCO` [propan-1-ol], for which the mass density is listed as 791.48 ± 0.15 kg/m3.

Staying with this data set, now noted: 313.15 K; 101.33 kPa; Liquid; Falling or rolling sphere viscometry.
On to `CCCCO` [butan-1-ol], for which the viscosity is 1.787 ± 0.014 mPa·s.

In the case of `CO` [methanol], the viscosity is 0.461 ± 0.005 mPa·s.

Turning to `CCO` [ethanol], the viscosity is on record as 0.836 ± 0.007 mPa·s.

As to `CCCC[NH3+].O=[N+]([O-])[O-]` [n-butylammonium nitrate], the viscosity is listed as 50.12 ± 1.3 mPa·s.

For the compound `CCCO` [propan-1-ol], the viscosity was determined as 1.382 ± 0.011 mPa·s.

The same data set, now with this note: 313.15 K; 101.33 kPa; Liquid; Vibrating tube method.
In the case of `CCCCO` [butan-1-ol], the mass density was 794.39 ± 0.15 kg/m3.
